Experiments:
MEK5 = biological target: T1, MEK5 (Homo sapiens, UniProt Q13163); experiment: Western blot, cellular pERK5 decrease after EGF stimulation; format: cell-based; conditions: MDA-MB-231 cells, compound 10 μM pretreatment 30 min, then EGF 50 ng/mL 15 min
T1 construct: The MDA-MB-231 triple negative breast cancer cell line was pretreated with compounds; endogenous in cells; host or cells: MDA-MB-231
T1 sequence (Q13163 1-448): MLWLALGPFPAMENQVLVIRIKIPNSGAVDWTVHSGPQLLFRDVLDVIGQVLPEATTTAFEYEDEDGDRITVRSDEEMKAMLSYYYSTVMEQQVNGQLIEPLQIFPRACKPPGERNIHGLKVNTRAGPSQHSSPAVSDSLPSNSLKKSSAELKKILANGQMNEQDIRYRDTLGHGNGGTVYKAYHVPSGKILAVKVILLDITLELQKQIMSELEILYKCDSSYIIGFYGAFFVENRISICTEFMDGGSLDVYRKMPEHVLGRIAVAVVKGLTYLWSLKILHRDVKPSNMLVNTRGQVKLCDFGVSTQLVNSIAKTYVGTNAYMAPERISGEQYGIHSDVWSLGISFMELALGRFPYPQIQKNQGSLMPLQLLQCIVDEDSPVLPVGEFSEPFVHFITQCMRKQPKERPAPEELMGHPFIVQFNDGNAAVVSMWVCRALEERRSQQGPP
Procedure: (§1) Western Blot Analysis of Potential MEK-5 Inhibitors
(§2) The MDA-MB-231 triple negative breast cancer cell line was pretreated with compounds (10 μM) for 30 min followed by stimulation with epidermal growth factor (EGF, 50 ng/mL) for 15 min. Vehicle-treated cells were pretreated with DMSO for 30 min prior to EGF stimulation for 15 min. Protein visualization and quantification analysis was performed using LI-COR Odyssey Imager. *P<0.05 vs. Vehicle, one-way ANOVA followed by Tukey-Kramer test (n=3)

MEK1/2 = experiment: Western blot, cellular pERK1/2 decrease after EGF stimulation; format: cell-based; conditions: MDA-MB-231 cells, compound 10 μM pretreatment 30 min, then EGF 50 ng/mL 15 min
Procedure: as §1, §2

Compound	cellular pERK5 decrease (%) (MEK5)	cellular pERK1/2 decrease (%) (MEK1/2)
COC(=O)c1ccc(F)c(F)c1Nc1ccc(I)cc1F [SC-1-72 Ester]	20.1	98.5
N#CC(=C(/N)Sc1ccccc1N)/C(C#N)=C(\N)Sc1ccccc1N [U0126, reference compound]	0.28	99.72
CN[C@@H]1C[C@H]2O[C@@](C)([C@@H]1OC)n1c3ccccc3c3c4c(c5c6ccccc6n2c5c31)C(=O)NC4 [staurosporine, reference compound]	–	98.93

Now from value to compound, other results behind:

cellular pERK5 decrease (%) (MEK5)	Compound	cellular pERK1/2 decrease (%) (MEK1/2)
20.1	O=C(O)c1ccc(F)c(F)c1Nc1ccc(I)cc1F [SC-1-148, 3,4-Difluoro-2-((2-fluoro-4-iodophenyl)amino)benzoic Acid]	98.5
2.1	O=C(O)c1ccc(F)c(F)c1Nc1ccccc1 [SC-1-175]	64.4

From US10654792B2, “Carboxylic acid ester prodrug inhibitors of MEK” (DUQUESNE UNIVERSITY OF THE HOLY GHOST, priority 2012, dated 2020)
